This passage reports Activity results from ChEMBL document CHEMBL3351858, “Opioids and efflux transporters. Part 4: influence of N-substitution on P-glycoprotein substrate activity of noroxymorphone analogues” (Bioorg Med Chem Lett, 2014).

Structures are written as SMILES. Activity calls are given as the source filed them. The calls are words filed in the database; no cut-off is given here.

The species entered for the assay is Homo sapiens. Kind of assay: Activity at human P-glycoprotein assessed as ATPase activity using firefly luciferase at 200 uM by Pgp-Glo assay in presence of MgATP.
Regarding `C=CCN1CC[C@]23c4c5ccc(O)c4O[C@H]2C(=O)CC[C@@]3(O)[C@H]1C5`, the outcome was inactive.
For `CC(C)=CCN1CC[C@]23c4c5ccc(O)c4O[C@H]2C(=O)CC[C@@]3(O)[C@H]1C5`, the result was inactive.
Take `C/C=C/CN1CC[C@]23c4c5ccc(O)c4O[C@H]2C(=O)CC[C@@]3(O)[C@H]1C5`: the outcome was Active.
The entry for `O=C1CC[C@@]2(O)[C@H]3Cc4ccc(O)c5c4[C@@]2(CCN3CCc2ccccc2)[C@H]1O5` is “Active”.
The entry for `C=C(C)CN1CC[C@]23c4c5ccc(O)c4O[C@H]2C(=O)CC[C@@]3(O)[C@H]1C5` is “Active”.
Consider `O=C1CC[C@@]2(O)[C@H]3Cc4ccc(O)c5c4[C@@]2(CCN3CCCc2ccccc2)[C@H]1O5`, for which the result was Active.
The entry for `O=C1CC[C@@]2(O)[C@H]3Cc4ccc(O)c5c4[C@@]2(CCN3CC2CC2)[C@H]1O5` is “inactive”; for `CN1CC[C@]23c4c5ccc(O)c4O[C@H]2C(=O)CC[C@@]3(O)[C@H]1C5` it is “inactive”.
For the compound `O=C1CC[C@@]2(O)[C@H]3Cc4ccc(O)c5c4[C@@]2(CCN3Cc2ccccc2)[C@H]1O5`, the outcome was Active.
